In the supplement of paper PMC10307832:

Assays:
Assay in all cases: relative viability (nuclei count vs DMSO), 5 days (fraction); higher = more cells survive
NCI-H2405 = system: NCI-H2405
Method in brief: (§1)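 Relative viability equals treated-well nuclei counts divided by vehicle-well nuclei counts. Counts came from 4× images of lung cancer cell lines grown in 1536-well plates for 5 days after pin-tool dosing on the day after seeding. Dosing used one drug alone or a fixed anchor-drug dose plus five library-drug doses (not always all listed) in √10 steps, and values are medians of duplicate plates.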

NCI-H2023 = system: NCI-H2023
Method in brief: as §1

NCI-H520 = system: NCI-H520
Method in brief: as §1

COR-L23 = system: COR-L23
Method in brief: as §1

NCI-H1793 = system: NCI-H1793
Method in brief: as §1

NCI-H650 = system: NCI-H650
Method in brief: as §1

HCC-44 = system: HCC-44
Method in brief: as §1

EMC-BAC-2 = system: EMC-BAC-2
Method in brief: as §1

LU99A = system: LU99A
Method in brief: as §1

HCC-827 = system: HCC-827
Method in brief: as §1

NCI-H1651 = system: NCI-H1651
Method in brief: as §1

H3255 = system: H3255
Method in brief: as §1

NCI-H1563 = system: NCI-H1563
Method in brief: as §1

NCI-H2087 = system: NCI-H2087
Method in brief: as §1

NCI-H838 = system: NCI-H838
Method in brief: as §1

EPLC-272H = system: EPLC-272H
Method in brief: as §1

NCI-H1944 = system: NCI-H1944
Method in brief: as §1

ChaGo-K-1 = system: ChaGo-K-1
Method in brief: as §1

SK-MES-1 = system: SK-MES-1
Method in brief: as §1

LCLC-103H = system: LCLC-103H
Method in brief: as §1

NCI-H1395 = system: NCI-H1395
Method in brief: as §1

NCI-H2085 = system: NCI-H2085
Method in brief: as §1

Nc1ccn([C@@H]2O[C@H](CO)[C@@H](O)[C@@H]2O)c(=O)n1 [Cytarabine] + N=C(N)NC(=N)NCCc1ccccc1 [Phenformin] (partner 250 µM)
relative viability (NCI-H2405; first compound 0.005 µM): 0.387
relative viability (NCI-H2405; first compound 0.01581 µM): 0.34
relative viability (NCI-H2405; first compound 0.05 µM): 0.288
relative viability (NCI-H2405; first compound 0.1581 µM): 0.238
relative viability (NCI-H2405; first compound 0.5 µM): 0.258
relative viability (NCI-H2023; first compound 0.005 µM): 0.287
relative viability (NCI-H2023; first compound 0.01581 µM): 0.224
relative viability (NCI-H2023; first compound 0.05 µM): 0.183
relative viability (NCI-H2023; first compound 0.1581 µM): 0.0883
relative viability (NCI-H2023; first compound 0.5 µM): 0.0962
relative viability (NCI-H520; first compound 0.005 µM): 0.558
relative viability (NCI-H520; first compound 0.01581 µM): 0.314
relative viability (NCI-H520; first compound 0.05 µM): 0.658
relative viability (NCI-H520; first compound 0.1581 µM): 0.383
relative viability (NCI-H520; first compound 0.5 µM): 0.323
relative viability (COR-L23; first compound 0.005 µM): 0.328
relative viability (COR-L23; first compound 0.01581 µM): 0.325
relative viability (COR-L23; first compound 0.05 µM): 0.3
relative viability (COR-L23; first compound 0.1581 µM): 0.146
relative viability (COR-L23; first compound 0.5 µM): 0.137
relative viability (NCI-H1793; first compound 0.005 µM): 0.359
relative viability (NCI-H1793; first compound 0.01581 µM): 0.34
relative viability (NCI-H1793; first compound 0.05 µM): 0.284
relative viability (NCI-H1793; first compound 0.1581 µM): 0.251
relative viability (NCI-H1793; first compound 0.5 µM): 0.216
relative viability (NCI-H650; first compound 0.005 µM): 0.448
relative viability (NCI-H650; first compound 0.01581 µM): 0.33
relative viability (NCI-H650; first compound 0.05 µM): 0.185
relative viability (NCI-H650; first compound 0.1581 µM): 0.194
relative viability (NCI-H650; first compound 0.5 µM): 0.187
relative viability (HCC-44; first compound 0.005 µM): 0.161
relative viability (HCC-44; first compound 0.01581 µM): 0.15
relative viability (HCC-44; first compound 0.05 µM): 0.142
relative viability (HCC-44; first compound 0.1581 µM): 0.113
relative viability (HCC-44; first compound 0.5 µM): 0.108
relative viability (EMC-BAC-2; first compound 0.005 µM): 0.418
relative viability (EMC-BAC-2; first compound 0.01581 µM): 0.482
relative viability (EMC-BAC-2; first compound 0.05 µM): 0.398
relative viability (EMC-BAC-2; first compound 0.1581 µM): 0.268
relative viability (EMC-BAC-2; first compound 0.5 µM): 0.196
relative viability (LU99A; first compound 0.005 µM): 1.07
relative viability (LU99A; first compound 0.01581 µM): 0.747
relative viability (LU99A; first compound 0.05 µM): 0.871
relative viability (LU99A; first compound 0.1581 µM): 0.775
relative viability (LU99A; first compound 0.5 µM): 0.808
relative viability (HCC-827; first compound 0.005 µM): 0.321
relative viability (HCC-827; first compound 0.01581 µM): 0.258
relative viability (HCC-827; first compound 0.05 µM): 0.195
relative viability (HCC-827; first compound 0.1581 µM): 0.141
relative viability (HCC-827; first compound 0.5 µM): 0.158
relative viability (NCI-H1651; first compound 0.005 µM): 0.304
relative viability (NCI-H1651; first compound 0.01581 µM): 0.346
relative viability (NCI-H1651; first compound 0.05 µM): 0.319
relative viability (NCI-H1651; first compound 0.1581 µM): 0.2
relative viability (NCI-H1651; first compound 0.5 µM): 0.18
relative viability (H3255; first compound 0.005 µM): 0.301
relative viability (H3255; first compound 0.01581 µM): 0.336
relative viability (H3255; first compound 0.05 µM): 0.296
relative viability (H3255; first compound 0.1581 µM): 0.25
relative viability (H3255; first compound 0.5 µM): 0.273
relative viability (NCI-H1563; first compound 0.005 µM): 0.548
relative viability (NCI-H1563; first compound 0.01581 µM): 0.642
relative viability (NCI-H1563; first compound 0.05 µM): 0.706
relative viability (NCI-H1563; first compound 0.1581 µM): 0.56
relative viability (NCI-H1563; first compound 0.5 µM): 0.567
relative viability (NCI-H2087; first compound 0.005 µM): 0.384
relative viability (NCI-H2087; first compound 0.01581 µM): 0.308
relative viability (NCI-H2087; first compound 0.05 µM): 0.373
relative viability (NCI-H2087; first compound 0.1581 µM): 0.229
relative viability (NCI-H2087; first compound 0.5 µM): 0.131
relative viability (NCI-H838; first compound 0.005 µM): 0.482
relative viability (NCI-H838; first compound 0.01581 µM): 0.532
relative viability (NCI-H838; first compound 0.05 µM): 0.422
relative viability (NCI-H838; first compound 0.1581 µM): 0.241
relative viability (NCI-H838; first compound 0.5 µM): 0.201
relative viability (EPLC-272H; first compound 0.005 µM): 0.249
relative viability (EPLC-272H; first compound 0.01581 µM): 0.277
relative viability (EPLC-272H; first compound 0.05 µM): 0.26
relative viability (EPLC-272H; first compound 0.1581 µM): 0.147
relative viability (EPLC-272H; first compound 0.5 µM): 0.214
relative viability (NCI-H1944; first compound 0.005 µM): 0.166
relative viability (NCI-H1944; first compound 0.01581 µM): 0.184
relative viability (NCI-H1944; first compound 0.05 µM): 0.14
relative viability (NCI-H1944; first compound 0.1581 µM): 0.106
relative viability (NCI-H1944; first compound 0.5 µM): 0.103
relative viability (ChaGo-K-1; first compound 0.005 µM): 0.421
relative viability (ChaGo-K-1; first compound 0.01581 µM): 0.342
relative viability (ChaGo-K-1; first compound 0.05 µM): 0.323
relative viability (ChaGo-K-1; first compound 0.1581 µM): 0.176
relative viability (ChaGo-K-1; first compound 0.5 µM): 0.181
relative viability (SK-MES-1; first compound 0.005 µM): 0.44
relative viability (SK-MES-1; first compound 0.01581 µM): 0.389
relative viability (SK-MES-1; first compound 0.05 µM): 0.212
relative viability (SK-MES-1; first compound 0.1581 µM): 0.206
relative viability (SK-MES-1; first compound 0.5 µM): 0.178
relative viability (LCLC-103H; first compound 0.005 µM): 0.332
relative viability (LCLC-103H; first compound 0.01581 µM): 0.365
relative viability (LCLC-103H; first compound 0.05 µM): 0.335
relative viability (LCLC-103H; first compound 0.1581 µM): 0.31
relative viability (LCLC-103H; first compound 0.5 µM): 0.311
relative viability (NCI-H1395; first compound 0.005 µM): 0.411
relative viability (NCI-H1395; first compound 0.01581 µM): 0.392
relative viability (NCI-H1395; first compound 0.05 µM): 0.353
relative viability (NCI-H1395; first compound 0.1581 µM): 0.319
relative viability (NCI-H1395; first compound 0.5 µM): 0.31
relative viability (NCI-H2085; first compound 0.005 µM): 0.746
relative viability (NCI-H2085; first compound 0.01581 µM): 0.67
relative viability (NCI-H2085; first compound 0.05 µM): 0.757
relative viability (NCI-H2085; first compound 0.1581 µM): 0.413
relative viability (NCI-H2085; first compound 0.5 µM): 0.362
